Patent US20110046170A1, “NOVEL PYRIMIDINE-PYRIDINE DERIVATIVES” (priority 2008, published 2011)

target: human S1P1 receptor (Homo sapiens, UniProt P21453); test: GTPγS assay to determine EC50 values; assay type: biochemical; conditions: 35S-GTPγS binding, membrane preparations of CHO cells expressing recombinant human S1P1 receptor
Description: GTPγS Assay to Determine EC50 Values
GTPγS binding assays are performed in 96 well microtiter plates (Nunc, 442587) in a final volume of 200 μl, using membrane preparations of CHO cells expressing recombinant human S1P1 receptor. Assay conditions are 20 mM Hepes (Fluka, 54461), 100 mM NaCl (Fluka, 71378), 5 mM MgCl2 (Fluka, 63064), 0.1% BSA (Calbiochem, 126609), 1 μM GDP (Sigma, G-7127), 2.5% DMSO (Fluka, 41644), 50 pM ^35S-GTPγS (Amersham Biosciences, SJ1320). The pH is 7.4. Test compounds are dissolved and diluted in 100% DMSO and pre-incubated at rt for 30 min in 150 μl of the above assay buffer, in the absence of ^35S-GTPγS. After addition of 50 μl of ^35S-GTPγS, the assay is incubated for 1 h at rt. The assay is terminated by transfer of the reaction mixture to a Multiscreen plate (Millipore, MAHFC1H60) using a cell harvester from Packard Biosciences, and the plates are washed with ice-cold 10 mM Na2HPO4/NaH2PO4 (70%/30%), dried, sealed at the bottom and, after addition of 25 μl MicroScint20 (Packard Biosciences, order# 6013621), sealed on the top. Membrane-bound ^35S-GTPγS is measured with a TopCount from Packard Biosciences.
EC50 is the concentration of agonist inducing 50% of the maximal specific ^35S-GTPγS binding. Specific binding is determined by subtracting non-specific binding from maximal binding. Maximal binding is the amount of cpm bound to the Multiscreen plate in the presence of 10 μM of S1P. Non-specific binding is the amount of binding in the absence of an agonist in the assay.

Sequence of human S1P1 receptor (P21453 whole entry): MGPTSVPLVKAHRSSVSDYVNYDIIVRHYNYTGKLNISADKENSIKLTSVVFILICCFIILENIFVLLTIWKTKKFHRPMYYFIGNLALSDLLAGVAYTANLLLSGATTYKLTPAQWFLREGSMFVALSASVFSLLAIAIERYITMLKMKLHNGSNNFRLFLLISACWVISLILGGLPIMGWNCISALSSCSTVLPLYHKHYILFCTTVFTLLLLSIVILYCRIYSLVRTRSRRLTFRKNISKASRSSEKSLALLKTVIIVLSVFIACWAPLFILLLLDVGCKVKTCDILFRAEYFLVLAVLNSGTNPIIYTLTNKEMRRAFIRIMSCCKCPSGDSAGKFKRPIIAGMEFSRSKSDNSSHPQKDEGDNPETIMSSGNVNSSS

EC50 | Structure (SMILES)
> 10000 nM | Cc1cc(CC(C)C)nc(-c2nc(-c3cc(C)nc(NCC(C)C)n3)no2)c1 [Example 242]
> 10000 nM | CCCN(CC)c1nc(C)cc(-c2noc(-c3cnc(N(C)C(C)C)c(CC)c3)n2)n1 [Example 231]
> 10000 nM | CCc1cc(-c2nc(-c3cc(C)nc(OCC(C)C)n3)no2)cnc1N(C)C(C)C [Example 237]
> 10000 nM | CCN(c1nc(C)cc(-c2noc(-c3cc(C)cc(CC(C)C)n3)n2)n1)C(C)C [Example 250]
> 10000 nM | CCCN(CC)c1nc(C)cc(-c2noc(-c3cc(C)cc(CC(C)C)n3)n2)n1 [Example 249]
> 10000 nM | Cc1cc(CC(C)C)nc(-c2nc(-c3cc(C)nc(NC(C)C)n3)no2)c1 [Example 241]
> 10000 nM | CCCN(C)c1nc(C)cc(-c2noc(-c3cnc(N(C)C(C)C)c(CC)c3)n2)n1 [Example 227]
> 10000 nM | CCc1cc(-c2nc(-c3cc(C)nc(NCC(C)C)n3)no2)cnc1N(C)C(C)C [Example 224]
> 10000 nM | CCOc1nc(C)cc(-c2nc(-c3cc(C)nc(N(C)C)c3)no2)n1 [Example 70]
> 10000 nM | COc1nc(C)cc(-c2nc(-c3cc(C)nc(C)c3)no2)n1 [Example 58]
> 10000 nM | CCN(CC)c1nc(C)cc(-c2noc(-c3cc(C)cc(CC(C)C)n3)n2)n1 [Example 248]
> 10000 nM | Cc1cc(CC(C)C)nc(-c2nc(-c3cc(C)nc(OC(C)C)n3)no2)c1 [Example 254]
> 10000 nM | CCCOc1nc(C)cc(-c2nc(-c3cc(C)nc(N(C)CC)c3)no2)n1 [Example 78]
> 10000 nM | Cc1cc(CC(C)C)nc(-c2nc(-c3cc(C)nc(OCC(C)C)n3)no2)c1 [Example 255]
> 10000 nM | COc1nc(C)cc(-c2noc(-c3cc(C)nc(C)c3)n2)n1 [Example 180]
> 10000 nM | Cc1cc(CC(C)C)nc(-c2nc(-c3cc(C)nc(N(C)C(C)C)n3)no2)c1 [Example 246]
> 10000 nM | Cc1cc(CC(C)C)nc(-c2nc(-c3cc(C)nc(N(C)CC(C)C)n3)no2)c1 [Example 247]
> 10000 nM | CCc1cc(-c2nc(-c3cc(C)nc(N(CC)C(C)C)n3)no2)cnc1N(C)C(C)C [Example 232]
> 10000 nM | CCc1cc(-c2nc(-c3cc(C)nc(N(C)CC(C)C)n3)no2)cnc1N(C)C(C)C [Example 229]
> 10000 nM | CCCNc1nc(C)cc(-c2noc(-c3cc(C)cc(CC(C)C)n3)n2)n1 [Example 240]

same assay, conditions: 35S-GTPγS binding, membrane preparations of CHO cells expressing recombinant human S1P1 receptor; agonistic activity

EC50 | Structure (SMILES)
27 nM | COc1nc(C)cc(-c2noc(-c3cc(C)nc(CC(C)C)c3)n2)n1 [Example 94]
128 nM | Cc1cc(-c2nnc(-c3cc(C)nc(NC(C)C)n3)o2)cc(C)n1 [Example 100]
395 nM | CCCOc1nc(C)cc(-c2noc(-c3cc(C)nc(C)c3)n2)n1 [Example 182]
190 nM | CCc1cc(-c2nc(-c3cc(C)nc(OC)n3)no2)cnc1N(C)C(C)C [Example 233]
2.1 nM | CCc1cc(-c2noc(-c3cc(C)nc(NC4CC4)n3)n2)cc(C)n1 [Example 116]
8 nM | Cc1cc(-c2noc(-c3cc(C)nc(NCC(C)C)n3)n2)cc(C)n1 [Example 27]
331 nM | CCCNc1nc(C)cc(-c2nnc(-c3cc(C)nc(C)c3)s2)n1 [Example 261]
31 nM | Cc1cc(-c2nc(-c3cc(C)nc(NCC(C)C)n3)no2)cc(Cl)n1 [Example 187]
0.7 nM | CCc1cc(-c2nc(-c3cc(C)nc(C)c3)no2)nc(NC(C)C)n1 [Example 147]
46 nM | Cc1cc(-c2noc(-c3cc(C)nc(NC(C)C)n3)n2)cc(N(C)C)n1 [Example 25]
21 nM | CCNc1nc(C)cc(-c2nc(-c3cc(C)nc(CC)c3)no2)n1 [Example 9]
1.6 nM | Cc1cc(-c2noc(-c3cc(C)nc(NC(C)C)n3)n2)cc(C)n1 [Example 21]
2150 nM | CCN(c1nc(C)cc(-c2noc(-c3ccnc(C)c3)n2)n1)C(C)C [Example 166]
26 nM | Cc1cc(-c2noc(-c3cc(CC(C)C)nc(NC(C)C)n3)n2)cc(C)n1 [Example 142]
1.3 nM | Cc1cc(-c2noc(-c3cc(C)nc(N(C)C(C)C)n3)n2)cc(C)n1 [Example 109]
11 nM | CCCNc1nc(C)cc(-c2nc(-c3ccnc(C)c3)no2)n1 [Example 101]
1.2 nM | CCNc1nc(CC)cc(-c2nc(-c3cc(C)nc(C)c3)no2)n1 [Example 79, {4-[3-(2,6-Dimethyl-pyridin-4-yl)-[1,2,4]oxadiazol-5-yl]-6-ethyl-pyrimidin-2-yl}-ethyl-amine]
11 nM | CCN(CC)c1nc(C)cc(-c2noc(-c3cc(C)nc(C)c3)n2)n1 [Example 177]
63 nM | CCc1cc(-c2nc(-c3cc(C)nc(C)c3)no2)nc(N(C)C)n1 [Example 149]
795 nM | CCCN(CC)c1nc(C)cc(-c2noc(-c3cnc(CC(C)C)c(C)c3)n2)n1 [Example 211]
560 nM | CNc1nc(C)cc(-c2noc(-c3cc(C)nc(N(C)C)c3)n2)n1 [Example 188]
142 nM | CCc1cc(-c2noc(-c3cc(C)nc(OCC(C)C)n3)n2)cc(C)n1 [Example 135]
4160 nM | CCc1cc(-c2nc(-c3cc(C)nc(NC(C)C)n3)no2)cnc1N(C)C(C)C [Example 223]

EC50 | Structure (SMILES)
3040 nM | Cc1cc(-c2nc(-c3cc(C)nc(OCC(C)C)n3)no2)cc(N(C)C)n1 [Example 205]
11 nM | CCCN(CC)c1nc(C)cc(-c2noc(-c3cc(C)nc(C)c3)n2)n1 [Example 178]
20 nM | Cc1cc(-c2nc(-c3ccc(C)c(C)n3)no2)nc(NC(C)C)n1 [Example 155]
1140 nM | COc1nc(C)cc(-c2noc(-c3cc(C)nc(N(C)C)c3)n2)n1 [Example 201]
5780 nM | CCCNc1nc(C)cc(-c2noc(-c3cnc(CC(C)C)c(C)c3)n2)n1 [Example 206]
39 nM | CCN(c1nc(C)cc(-c2nc(-c3cc(C)nc(OC)c3)no2)n1)C(C)C [Example 126]
53 nM | CCc1cnc(-c2noc(-c3cc(C)nc(NC(C)C)n3)n2)cc1C [Example 159]
94 nM | CCN(c1nc(C)cc(-c2noc(-c3cc(C)nc(N(C)C)c3)n2)n1)C(C)C [Example 200]
241 nM | Cc1cc(-c2nc(-c3cc(C)nc(N(C)C(C)C)n3)no2)cc(N(C)C)n1 [Example 196]
201 nM | COc1nc(C)cc(-c2noc(-c3cc(C)cc(CC(C)C)n3)n2)n1 [Example 251]
30 nM | CNc1nc(C)cc(-c2noc(-c3cc(C)nc(CC(C)C)c3)n2)n1 [Example 81]
27 nM | CCNc1nc(C)cc(-c2nc(-c3cc(C)nc(Cl)c3)no2)n1 [Example 12]
3220 nM | CCc1cc(-c2nc(-c3cc(C)nc(N(C)C(C)C)n3)no2)cnc1N(C)C(C)C [Example 228]
720 nM | Cc1cc(-c2noc(-c3cnc(OC(C)C)c(C)c3)n2)nc(NC(C)C)n1 [Example 214]
186 nM | CCc1cc(-c2noc(-c3cc(C)nc(N4CCCC4)n3)n2)cc(C)n1 [Example 118]
22 nM | CCCNc1nc(C)cc(-c2noc(-c3cc(C)nc(Cl)c3)n2)n1 [Example 185]
34 nM | CCCN(C)c1nc(C)cc(-c2noc(-c3cc(C)nc(C)c3)n2)n1 [Example 174]
231 nM | CCc1cc(-c2nc(-c3cc(C)nc(NC)n3)no2)cnc1N(C)C(C)C [Example 220]
44 nM | Cc1cc(-c2noc(-c3cc(C)nc(OC(C)C)n3)n2)cc(C)n1 [Example 132]
126 nM | COc1nc(C)cc(-c2nc(-c3cc(C)nc(C(C)C)c3)no2)n1 [Example 60]
402 nM | CNc1nc(C)cc(-c2noc(-c3cc(C)cc(CC(C)C)n3)n2)n1 [Example 238]
30 nM | CCCNc1nc(C)cc(-c2nc(-c3cc(C)nc(OC)c3)no2)n1 [Example 119]
318 nM | Cc1cc(CC(C)C)nc(-c2nc(-c3cc(C)nc(N(C)C)n3)no2)c1 [Example 243]

tested on: circulating lymphocytes; test: Assessment of in vivo efficacy: circulating lymphocytes after oral administration; conditions: 6 h after oral administration of 10 mg/kg to normotensive male Wistar rats, compared to vehicle-treated group; mean ± SEM
Description: Assessment of In Vivo Efficacy
The efficacy of the compounds of formula (I) is assessed by measuring the circulating lymphocytes after oral administration of 3 to 30 mg/kg of a compound of formula (I) to normotensive male Wistar rats. The animals are housed in climate-controlled conditions with a 12 h-light/dark cycle, and have free access to normal rat chow and drinking water. Blood is collected before and 3, 6 and 24 h after drug administration. Full blood is subjected to hematology using Advia Hematology system (Bayer Diagnostics, Zurich, Switzerland).
All data are presented as mean±SEM. Statistical analyses are performed by analysis of variance (ANOVA) using Statistica (StatSoft) and the Student-Newman-Keuls procedure for multiple comparisons. The null hypothesis is rejected when p<0.05.

Structure (SMILES) | Lymphocyte counts
Cc1cc(-c2noc(-c3cc(C)nc(NC(C)C)n3)n2)cc(C)n1 [Example 21] | −71 ± 2%
CCNc1nc(CC)cc(-c2nc(-c3cc(C)nc(C)c3)no2)n1 [Example 79, {4-[3-(2,6-Dimethyl-pyridin-4-yl)-[1,2,4]oxadiazol-5-yl]-6-ethyl-pyrimidin-2-yl}-ethyl-amine] | −70 ± 2%
